Source: patent publication US4202891A, “15-Oxygenated sterol compounds and the use of such compounds to inhibit the biosynthesis of sterols” (priority 1977, dated 1980)
Where two headings read alike, the source gives them in different places. One block for each compound: values may come before it.

Columns and labels:
[1] = system: sterol biosynthesis in L cells; test: Inhibition of sterol synthesis from [1-14C]acetate in L cell cultures; assay type: cell-based; conditions: Mus musculus; for inhibition at 0.1 µM: read-out: inhibition of sterol synthesis
Procedure: (§1) The effect of various 15-oxygenated sterols on sterol biosynthesis in L cells and in primary cultures of mouse liver cells was tested essentially under conditions described in detail previously [A. A. Kandutsch and H. W. Chen, J. Biol. Chem., Vol. 248, pp. 8408-8417 (1973) and A. A. Kandutsch and H. W. Chen, J. Biol. Chem., Vol. 249, pp. 6057-6061 (1974`)].
(§2) The primary liver cell cultures were prepared from 16-day-old (C57BL/6J fetuses and grown in chemically defined medium (serum-free) as described in the above cited publications. The L cells, a subline of NCTC clone 929 mouse fibroblasts, were grown in chemically defined medium (serum-free) as described in the publications. These L cells are transformed fibroblasts which are regarded as malignant since they will grow as tumors if injected into the mouse strain from which they were initially obtained.
(§3) The preparation of steroid-containing media, procedures for assays of the conversion of [1-^14 C]acetate into digitonin-precipitable sterols, fatty acids, and CO2 and methods for the measurement of DNA, protein, and HMG-CoA reductase were as described in the published articles. L cell cultures were preincubated with the 15-oxygenated sterols and their derivatives for 4 hours, then [1-^14 C]acetate was added at a concentration of 4 μmoles per ml (4 μCi per ml); or the L cell cultures were incubated for 5 hours with the 15-oxygenated sterols before they were harvested for determination of microsomal HMG-CoA reductase activity.
(§4) The test compounds were tested over a range of at least 4 concentrations and the assay was repeated until the concentration of test compound required to produce 50% inhibition was located on the steeply declining portion of an activity vs. concentration plot. To diminish any possible effects of generalized differences in cellular metabolism, the rates of sterol synthesis from [1-^14 C]acetate were calculated as the ratio of [^14 C]sterols to [^14 C]fatty acids as described in the two cited articles by Kandutsch and Chen.

[2] = system: sterol biosynthesis in primary cultures of mouse liver cells; test: Inhibition of sterol synthesis from [1-14C]acetate in primary cultures of liver cells; assay type: cell-based
Procedure: as §1, §2, §3
Conditions for incubating the 15-oxygenated sterols or their derivatives with liver cell cultures were similar to those described for L cell cultures except that the cultures were incubated with the test compounds for 12 hours before labeled acetate was added or before they were harvested for enzyme assay.
as §4

[3] = system: serum cholesterol; test: Effect on serum cholesterol levels in rats, daily subcutaneous injection (Examples 41, 42); assay type: in vivo, rat (male, Sprague-Dawley); conditions: Example 42; for Serum Cholesterol (Mean ± S.E.M.): 5 mg s.c. once a day in triolein
Procedure: Male rats of the Sprague-Dawley strain were fed Purina rat chow ad libidum. The rats were maintained on a light (7 A.M.-6 P.M.) -dark (6 P.M.-7 A.M.) cycle throughout the study and for a period of at least 4 days prior to the initiation of the study.
3β-Hexadecanoyloxy-5α-cholest-8(14)-en-15-one (5 mg; dissolved in 0.25 ml of triolein), hereafter referred to as the "palmitate ester", or 3β-hemisuccinoyloxy-5α-cholest-8(14)-en-15-one (5 mg; suspended in 0.25 ml of triolein through the use of a tight-fitting all-glass homogenizer), hereafter referred to as the "hemisuccinate ester", were administered subcutaneously once a day at about 12 P.M. to each of eight and six rats, respectively. Control animals (8) received daily injections of triolein (0.25 ml).
Blood samples were taken from the rats periodically and the serum cholesterol concentrations measured, in duplicate, by the method of Abell et al., J. Biol. Chem., Vol. 195, pp. 357-366 ([…]).
Following generally the procedure described in Example 41, 3β-Ethoxy-14α-ethyl-5α-cholest-7-en-15-one (5 mg) in triolein (0.25 ml) was administered subcutaneously once a day to each of eight rats. Control animals (8) received daily injections of triolein (0.25 ml).
Similarly, 5α-cholest-8(14)-en-3β-ol-15-one (2mg) in (0.2 ml) olive oil or 5.0 mg in 0.5 ml of olive oil) was administered subcutaneously once a day to each of a group of rats. The 2 mg dose was administered to 12 rats, while a like number of rats received daily injections of 0.2 ml olive oil. 5 mg doses were administered to each of 6 rats, while 6 control animals received daily injections of 0.5 ml olive oil. The rats used in this study initially weighed between 110 and 190 grams.

[4] = system: HMG-CoA reductase; test: Reduction of the activity of HMG-CoA reductase in L cell cultures; assay type: cell-based, mouse; conditions: read-out: Concentrations Required for 50% Reduction of the Activity of HMG-CoA Reductase
Procedure: as §2, §3
A number of the 15-oxygenated sterols have also been tested with respect to their effects on the activity and/or levels of the enzyme HMG-CoA reductase (3-hydroxy-3-methylglutaryl coenzyme A reductase) in the L cells and in the liver cells. As noted previously, this enzyme catalyzes the reduction of 3-hydroxy-3-methylglutaryl coenzyme A to yield mevalonic acid, an essential intermediate in the biosynthesis of sterols and of a number of other essential compounds in cells.
Using the technique described by Kandutsch and Chen in the article cited in the previous example, the concentrations of various 15-oxygenated sterols required to reduce the levels of activity of HMG-CoA reductase by 50% was determined in the cells of the L cells in culture and of the primary cultures of liver cells.

[5] = read-out: Concentrations Required for 50% Inhibition of Sterol Synthesis
[6] = read-out: concentration causing 50% inhibition of sterol synthesis

Compound: CO[C@H]1CC[C@@]2(C)[C@@H](CC=C3[C@@H]2CC[C@]2(C)[C@@H]([C@H](C)CCCC(C)C)CC(=O)[C@@]32C)C1 [3β-methoxy-14α-methyl-5α-cholest-7-en-15-one]
IC50 [1, 5]: 20 µM

Compound: CC(C)CCC[C@@H](C)[C@H]1C[C@@H](O)[C@@H]2C3=CC[C@H]4CC(=O)CC[C@]4(C)[C@H]3CC[C@]12C [5α,14β-Cholest-7-en-15β-ol-3-one, 5α,14β-cholest-7-en-15β-ol-3-one]
IC50 [1, 5]: 0.25 µM

Compound: CC[C@]12C3=CC[C@H]4C[C@@H](O)CC[C@]4(C)[C@H]3CC[C@]1(C)[C@@H]([C@H](C)CCCC(C)C)C[C@@H]2O [14α-Ethyl-5α-cholest-7-en-3β,15α-diol, 14α-ethyl-5α-cholest-7-en-3β,15α-diol]
IC50 [2, 5]: 0.06 µM
IC50 [2, 6]: 0.06 µM
IC50 [1, 6]: 0.05 µM

Compound: CCO[C@H]1CC[C@@]2(C)[C@@H](CC=C3[C@@H]2CC[C@]2(C)[C@@H]([C@H](C)CCCC(C)C)CC(=O)[C@@]32CC)C1 [3β-ethoxy-14α-ethyl-5α-cholest-7-en-15-one]
IC50 [1, 5]: > 22 µM
Serum Cholesterol (Mean ± S.E.M.) ([3]; day 0): 89.1 ± 2.2 mg per 100 ml
Serum Cholesterol (Mean ± S.E.M.) ([3]; day 6): 77.3 ± 2.1 mg per 100 ml
Serum Cholesterol (Mean ± S.E.M.) ([3]; day 10): 80.1 ± 2.3 mg per 100 ml
Serum Cholesterol (Mean ± S.E.M.) ([3]; day 15): 78.5 ± 3.3 mg per 100 ml
Serum Cholesterol (Mean ± S.E.M.) ([3]; day 21): 73.1 ± 2.3 mg per 100 ml
Serum Cholesterol (Mean ± S.E.M.) ([3]; day 27): 66.8 ± 2.6 mg per 100 ml
% Reduction (relative to triolein-treated rats) ([3]; 5 mg s.c. once a day, day 6): 4.8%
% Reduction (relative to triolein-treated rats) ([3]; 5 mg s.c. once a day, day 10): 3.4%
% Reduction (relative to triolein-treated rats) ([3]; 5 mg s.c. once a day, day 15): 3.8%
% Reduction (relative to triolein-treated rats) ([3]; 5 mg s.c. once a day, day 21): 11.5%
% Reduction (relative to triolein-treated rats) ([3]; 5 mg s.c. once a day, day 27): 18.3%
percentage reduction in serum cholesterol levels, mean value (S.E.M.) ([3]; 5 mg s.c. once a day, day 27 vs. day 0): 25.0

IC50 ([1]; L cell cultures, read-out: Concentrations Required for 50% Inhibition of Sterol Synthesis): 0.5 µM
Compound: CC(C)CCC[C@@H](C)[C@H]1CC(=O)C2=C3CC[C@H]4C[C@H](O)CC[C@]4(C)[C@H]3CC[C@@]21C [5α-Cholest-8(14)-en-3α-ol-15-one, 5α-cholest-8(14)-en-3α-ol-15-one]

Compound: CCCC[C@@]12C(=O)C[C@H]([C@H](C)CCCC(C)C)[C@@]1(C)CC[C@H]1C2=CC[C@H]2C[C@@H](O)CC[C@@]21C [14α-n-Butyl-5α-cholest-7-en-3β-ol-15-one, 14α-n-butyl-5α-cholest-7-en-3β-ol-15-one]
IC50 [1, 5]: 8.3 µM

Compound: CCO[C@H]1CC[C@@]2(C)[C@@H](CC=C3[C@@H]2CC[C@]2(C)[C@@H]([C@H](C)CCCC(C)C)CC(O)[C@@]32CC)C1 (stereo partly drawn) [3β-Ethoxy-14α-ethyl-5α-cholest-7-en-15-ol]
IC50 [2, 5]: 4.3 µM
IC50 [1, 5]: 0.7 µM

Compound: CCCCCCCCCCCCCCCC(=O)O[C@H]1CC[C@@]2(C)[C@@H](CC=C3[C@@H]2CC[C@]2(C)[C@@H]([C@H](C)CCCC(C)C)C[C@H](O)[C@@]32CC)C1 [3β-hexadecanoyloxy-14α-ethyl-5α-cholest-7-en-15α-ol]
IC50 [1, 5]: 7 µM

Compound: CC[C@]12C3=CC[C@H]4CC(=O)CC[C@]4(C)[C@H]3CC[C@]1(C)[C@@H]([C@H](C)CCCC(C)C)C[C@@H]2O [14α-Ethyl-5α-cholest-7-en-15α-ol-3-one, 14α-ethyl-5α-cholest-7-en-15α-ol-3-one]
IC50 [1, 5]: < 0.1 µM
inhibition at 0.1 µM [1]: ~100%

Compound: CCC[C@@]12C(=O)C[C@H]([C@H](C)CCCC(C)C)[C@@]1(C)CC[C@H]1C2=CC[C@H]2C[C@@H](O)CC[C@@]21C [14α-n-propyl-5α-cholest-7-en-3β-ol-15-one]
IC50 [1, 5]: 3.4 µM

Compound: CC[C@]12C3=CC[C@H]4C[C@@H](OC(C)=O)CC[C@]4(C)[C@H]3CC[C@]1(C)[C@@H]([C@H](C)CCCC(C)C)C[C@H]2O [3β-acetoxy-14α-ethyl-5α-cholest-7-en-15β-ol]
IC50 [4]: 0.13 µM
IC50 [1, 5]: 0.03 µM

Compound: CCCC[C@]12C3=CC[C@H]4C[C@@H](O)CC[C@]4(C)[C@H]3CC[C@]1(C)[C@@H]([C@H](C)CCCC(C)C)C[C@@H]2O [14α-n-Butyl-5α-cholest-7-en-3β,15α-diol, 14α-n-butyl-5α-cholest-7-en-3β,15α-diol]
IC50 [1, 5]: 5 µM

Compound: CCC[C@]12C3=CC[C@H]4C[C@@H](O)CC[C@]4(C)[C@H]3CC[C@]1(C)[C@@H]([C@H](C)CCCC(C)C)C[C@@H]2O [14α-n-Propyl-5α-cholest-7-en-3β,15α-diol, 14α-n-propyl-5α-cholest-7-en-3β,15α-diol]
IC50 [1, 5]: 1.1 µM

Compound: CC(C)CCC[C@@H](C)[C@H]1C[C@H](O)[C@@H]2C3=CC[C@H]4CC(=O)CC[C@]4(C)[C@H]3CC[C@]12C [5α,14β-Cholest-7-en-15α-ol-3-one, 5α,14β-cholest-7-en-15α-ol-3-one]
IC50 [1, 5]: 2 µM

Compound: CCCCCCCCCCCCCCCC(=O)O[C@H]1CC[C@@]2(C)[C@@H](CC=C3[C@@H]2CC[C@]2(C)[C@@H]([C@H](C)CCCC(C)C)C[C@@H](O)[C@@]32CC)C1 [3β-hexadecanoyloxy-14α-ethyl-5α-cholest-7-en-15β-ol]
IC50 [1, 5]: > 15.1 µM

Compound: CCC[C@]12C3=CC[C@H]4C[C@@H](O)CC[C@]4(C)[C@H]3CC[C@]1(C)[C@@H]([C@H](C)CCCC(C)C)C[C@H]2O [14α-n-Propyl-5α-cholest-7-en-3β,15β-diol, 14α-n-propyl-5α-cholest-7-en-3β,15β-diol]
IC50 [1, 5]: 4.1 µM

Compound: CC[C@@]12C(=O)C[C@H]([C@H](C)CCCC(C)C)[C@@]1(C)CC[C@H]1C2=CC[C@H]2C[C@H](O)CC[C@@]21C [14α-Ethyl-5α-cholest-7-en-3α-ol-15-one, 14α-ethyl-5α-cholest-7-en-3α-ol-15-one]
IC50 [1, 5]: < 0.1 µM
inhibition at 0.1 µM [1]: ~100%

Compound: CC(C)CCC[C@@H](C)[C@H]1C[C@H](O)C2=C3CC[C@H]4C[C@@H](O)CC[C@]4(C)[C@H]3CC[C@@]21C [5α-Cholest-8(14)-en-3β,15α-diol]
IC50 [2, 5]: 31 µM
IC50 [1, 5]: 3.7 µM

Compound: CC[C@]12C3=CC[C@H]4C[C@@H](O)CC[C@]4(C)[C@H]3CC[C@]1(C)[C@@H]([C@H](C)CCCC(C)C)C[C@H]2O [14α-Ethyl-5α-cholest-7-en-3β,15β-diol, 14α-ethyl-5α-cholest-7-en-3β,15β-diol]
IC50 [2, 5]: 0.8 µM
IC50 [1, 5]: 0.4 µM

Compound: CCCC[C@]12C3=CC[C@H]4C[C@@H](O)CC[C@]4(C)[C@H]3CC[C@]1(C)[C@@H]([C@H](C)CCCC(C)C)C[C@H]2O [14α-n-Butyl-5α-cholest-7-en-3β,15β-diol, 14α-n-butyl-5α-cholest-7-en-3β,15β-diol]
IC50 [1, 5]: 4.4 µM
